We go through 34 molecules from PubChem BioAssay AID1361 (SRMLSC, 2008).

Active and inactive are the calls of the source. No rule for the calls is given here.

The test is described as follows: mitochondrial fusion inhibitors, confirmation, cell-based, chemical genetic, wild-type and mutant (AID 1361). Particulars: Cell-based mitochondrial fusion phenotype, imaging.
Where [1] appears, read: mutant cells, measured here: mutant cell line IC50.

As to `N#Cc1c(-c2cccnc2)c2c([nH]c1=S)CCCC2`, the IC50 runs as follows: (WT cells) > 25 µM (inactive); under setting [1], greater than 25 µM.

Turning to `CCOCCCNC(=S)N1CCCN(c2nc3c(C)c(C)ccc3cc2C#N)CC1`, the IC50 was 11.8 µM (WT cells) and greater than 25 µM under setting [1].

On to `Fc1ccc(Nc2nc(N/N=C/c3ccco3)nc(N3CCCCC3)n2)cc1`, for which the IC50 was 19.3 µM (WT cells) and greater than 25 µM under setting [1].

For `CCCCC(=O)O[C@H]1CC[C@H]2[C@@H]3CCc4cc(O)ccc4[C@H]3CC[C@]12C`, the IC50 (WT cells) is 12.3 µM and the IC50 under setting [1] is greater than 25 µM.

`CCCn1nnc(NC(=O)c2ccc(-c3cccc(Cl)c3)o2)n1`: the IC50 (WT cells) was > 25 µM (inactive) and the IC50 under setting [1] was greater than 25 µM.

For `COCCCn1c(SCC(=O)NC(C)(C)C)nnc1-c1ccccc1`, the IC50 is, setting by setting: (WT cells) > 25 µM (inactive); under setting [1], greater than 25 µM.

`CCc1nnc(NC(=O)c2ccc(S(=O)(=O)N(CC(C)C)CC(C)C)cc2)o1`: the IC50 (WT cells) was 22.5 µM and the IC50 under setting [1] is greater than 25 µM.

For `CC(C)c1ccccc1OCC(=O)NC1CCCc2ccccc21` (stereo not drawn), the IC50 runs as follows: (WT cells) 20.4 µM; under setting [1], greater than 25 µM.

As to `NS(=O)(=O)c1ccc(N2N=C(c3ccccc3)CC2c2ccc(F)cc2)cc1` (stereo not drawn), the IC50 runs as follows: (WT cells) 12 µM; under setting [1], greater than 25 µM.

Regarding `O=C(Cc1c(O)c2ccccc2[nH]c1=O)NCc1ccccc1F`, the IC50 is, setting by setting: (WT cells) > 25 µM (inactive); under setting [1], greater than 25 µM.

Take `CC(C)CCNC(=O)CN(CC1CCCO1)C(=O)CCC(=O)Nc1ccccn1` (stereo not drawn): the IC50 (WT cells) was > 25 µM (inactive) and the IC50 under setting [1] is greater than 25 µM.

Take `CSc1nc2ccc(NS(=O)(=O)c3c(Cl)cccc3Cl)cc2s1`: the IC50 runs as follows: (WT cells) 19.3 µM; under setting [1], greater than 25 µM.

On to `CCn1c(CCCOc2ccc(Cl)cc2Cl)nnc1SCC(=O)Nc1cc(F)ccc1C`, for which the IC50 was 15.9 µM (WT cells) and greater than 25 µM under setting [1].

Take `Nc1[nH]n2c(=O)c3c(nc2c1N=Nc1ccccc1)CCCC3`: the IC50 is > 25 µM (inactive) (WT cells) and greater than 25 µM under setting [1].

In the case of `COc1ccc2nc(NC(=O)CN(c3ccc(C)cc3)S(=O)(=O)c3c(C)nn(C)c3C)sc2c1`, the IC50 reads like this: (WT cells) 16 µM; under setting [1], greater than 25 µM.

Consider `COc1ccc(CCN(Cc2cc3cc(C)cc(C)c3nc2Cl)C(=O)C2CC2)cc1`, for which the IC50 by setting is: (WT cells) 7.6 µM; under setting [1], greater than 25 µM.

As for `COc1cccc(-c2nc(OC(C)C)c3ccccc3n2)c1`, the IC50 reads like this: (WT cells) > 25 µM (inactive); under setting [1], greater than 25 µM.

For the molecule `CN1CCC2(CC1)Nc1nc(SCc3ccc(Cl)cc3)nn1C1=C2CN(C)CC1`, the IC50 (WT cells) was > 25 µM (inactive) and the IC50 under setting [1] was greater than 25 µM.

Regarding `Clc1ccc2c(c1)C(c1ccccc1Cl)=NCc1nnc(N3CCN(CCOc4ccccc4)CC3)n1-2`, the IC50 was 23.7 µM (WT cells) and greater than 25 µM under setting [1].

Regarding `O=C(Nc1ccc(Cl)cc1)N1CCN(c2ccc3nnc(-c4ccc(F)cc4)n3n2)CC1`, the IC50 runs as follows: (WT cells) > 25 µM (inactive); under setting [1], greater than 25 µM.

Consider `O=S(Cc1ccc(Br)cc1)Cc1nnc(SCc2c(F)cccc2Cl)n1-c1ccccc1` (stereo not drawn), for which the IC50 (WT cells) was > 25 µM (inactive) and the IC50 under setting [1] is greater than 25 µM.

As to `CCc1ccc2ncc(S(=O)(=O)c3ccc(C)c(C)c3)c(N3CCCC3)c2c1`, the IC50 was 14.6 µM (WT cells) and greater than 25 µM under setting [1].

Take `COc1ccc(N/C(N)=N/c2nc(CSc3ccc(C)cc3)cc(=O)[nH]2)cc1`: the IC50 by setting is: (WT cells) > 25 µM (inactive); under setting [1], greater than 25 µM.

For the molecule `CC(C)C1OC(c2cccc(NC(=O)c3cccs3)c2)OCC1(C)C` (stereo not drawn), the IC50 runs as follows: (WT cells) > 25 µM (inactive); under setting [1], greater than 25 µM.

For `CS(=O)(=O)c1nc2ccccc2n1Cc1ccccc1`, the IC50 by setting is: (WT cells) > 25 µM (inactive); under setting [1], greater than 25 µM.

On to `CC(C)(C)N/N=C1\CC(c2ccccc2)Oc2ccccc21` (stereo not drawn), for which the 50% inhibitory concentration (IC50) runs as follows: (WT cells) 14.5 µM; under setting [1], greater than 25 µM.

Take `O=C(Nc1ccc(Cl)c(Cl)c1)c1ccc(Cn2cc(Cl)cn2)cc1`: the IC50 was 8.52 µM (WT cells) and 18.6 µM under setting [1].

For `Cc1ccc(S(=O)(=O)c2c(C)nn(C(C)(C)C)c2OC(=O)CC(C)C)cc1`, the IC50 was 22.5 µM (WT cells) and greater than 25 µM under setting [1].

As for `CC(C)(C)c1cc(/C=N/O)cc(C(C)(C)C)c1O`, the IC50 runs as follows: (WT cells) > 25 µM (inactive); under setting [1], greater than 25 µM.

For `CCOC(=O)c1c(NS(=O)(=O)c2ccc(Br)cc2)sc2c1CCC2`, the IC50 is 12.6 µM (WT cells) and greater than 25 µM under setting [1].

As to `CNc1oc(C)nc1S(=O)(=O)c1ccc(C)cc1`, the IC50 is > 25 µM (inactive) (WT cells) and greater than 25 µM under setting [1].

Take `c1ccc2c(c1)CCN(c1ncnc3c1[nH]c1ccccc13)C2`: the IC50 runs as follows: (WT cells) > 25 µM (inactive); under setting [1], greater than 25 µM.

Take `Cc1nn(C(C)(C)C)c(OC(=O)c2ccc3c(c2)OCO3)c1Sc1ccccc1`: the IC50 is 8.28 µM (WT cells) and greater than 25 µM under setting [1].

As for `CCCC[C@@H]1C[C@H]1[C@@H](NC(=O)c1cccs1)c1ccc(Cl)cc1`, the IC50 is 9.76 µM (WT cells) and greater than 25 µM under setting [1].
